From US7524834B2, “Sterile powders, formulations, and methods for producing the same” (AstraZeneca AB, priority 1997, dated 2009)

Experiments:
spore suspension = assay: Decimal reduction time of spores in inoculated glucocorticosteroids at 110° C. (Example 7); details: for D110 value: Heating at 110° C., spore suspension different from Example 6
Experimental: 1 g of micronized budesonide, prednisolone and beclomethasone dipropionate and 0.5 g of rofleponide were inoculated with a different spore suspension to the one used in Example 6.
The samples were heat treated at 110° C. A sample was withdrawn after various heating times. The number of spores/g were determined by a pour plate technique according to US Pharmacopoeia 23/NF18, 1995, pp. 1681-1686, especially p. 1684.
From the number of spores before and after heat treatment the log reduction of spores and decimal reduction time (time needed at a specified temperature to reduce the number of microorganisms with one log) was calculated.

[1] = test system: Bacillus subtilis (globigii) spores; assay: Heat sterilization at 110° C. of powder inoculated with spore suspension (Example 2); details: for Spore population, After / Spore population, Before: 0.5 g sample; for Spore population, After: after 110° C. for 3 hours and 10 min; for Spore population, Before: before heat treatment; for Spore log reduction: 110° C. for 3 hours and 10 min
Experimental: Samples of 0.5 g of budesonide and of 0.5 g of calcium stearate were each inoculated with 0.1 ml of a Steris Bacillus subtilis (globigii) (Lot#LG126B) spore suspension containing 1.5×10^7 spores. Each sample was subjected to a temperature of 110° C. for 3 hours and 10 min in a Baxter Constant Temperature Oven using the same technique as in Example 1. The spore population of the samples was measured and the results obtained are shown below in Table 2.

A. niger = assay: Heat resistance of microorganisms inoculated on budesonide powder (Example 3)
Experimental: (§1) Tests were performed to evaluate the heat resistance of various naturally occurring microorganisms.
(§2) Samples of 0.5 g of budesonide powder were each inoculated with approximately 10^2-10^3 viable ATCC microorganisms in 120 ml open-ended polypropylene container. Each sample was subjected to a temperature of 110° C. for 3 hours and 10 min. The microorganism population of the samples was measured before and after heat treatment and the results obtained are shown below in Table 3.

B. subtilis ATCC 6633 = assay: as above; details: for Microorganism population, After: after 110° C. for 3 hours and 10 min; for Microorganism population, Before: before heat treatment
Experimental: as §1, §2

C. albicans = assay: as above
Experimental: as §1, §2

C. sporegenes = assay: as above
Experimental: as §1, §2

E. coli = assay: as above
Experimental: as §1, §2

M. luteus = assay: as above
Experimental: as §1, §2

Ps. Aeruginosa = assay: as above
Experimental: as §1, §2

S. epidermidis = assay: as above
Experimental: as §1, §2

Salmonella typhi = assay: as above
Experimental: as §1, §2

Bacillus subtilis spores = assay: Spore kill kinetics in inoculated micronized budesonide at 100, 110, 120° C., pour plate (Example 6)
Experimental: 5 g of micronized budesonide was inoculated with approximately 2 ml of a spore suspension of Bacillus subtilis.
The substance and the spore suspension were mixed and dried for approximately 3 hours at 55° C. The inoculated and dried budesonide was mixed with 20-40 g of non-inoculated micronized budesonide.
5 g portions of this sample were heat treated at 100° C., 110° C. or 120° C. in a Heraeus ST 5060 heating apparatus. A 1 g sample was withdrawn after various heating times at the respective heating temperatures. Each such 1 g sample was transferred to 10 ml of dilution medium pH 7.2. Appropriate dilutions were made in 0.1% Peptone Aqueous solution and the number of spores/g were determined by a pour plate technique according to US Pharmacopoeia 23/NF18, 1995, pp. 1681-1686, especially p. 1684.
The number of spores before heat treatment were determined in samples heated at 80° C. for 10 min in order to kill the vegetative cells.
The results are shown in Table 6. where the DT value is the amount of time in minutes required to obtain a log 1 reduction in the number of spores before and after heat treatment at the temperature T (in ° C.).

[2] = after 110° C. for 3 hours and 10 min
[3] = B. subtilis ATCC 6633, low inoculum
[4] = 100° C. series, before heat treatment (80° C. 10 min)
[5] = 110° C. series, before heat treatment (80° C. 10 min)
[6] = 120° C. series, before heat treatment (80° C. 10 min)

For CCC(=O)OCC(=O)[C@@]1(OC(=O)CC)[C@@H](C)C[C@H]2[C@@H]3CCC4=CC(=O)C=C[C@]4(C)[C@@]3(Cl)[C@@H](O)C[C@@]21C [Beclomethasone dipropionate, beclomethasone dipropionate], the “D110 value” (spore suspension) was 72.7 min.

With CCCC1O[C@@H]2C[C@H]3[C@@H]4CCC5=CC(=O)C=C[C@]5(C)[C@H]4[C@@H](O)C[C@]3(C)[C@]2(C(=O)CO)O1 (stereo partly shown) [Budesonide, budesonide] the “Spore population, After” value [1] was <10 spores, the “Spore population, Before” value [1] was 1.5 × 10^7 spores and the Spore log reduction [1] was “greater than 6.2”. For the same molecule, the “Microorganism population, After” value (A. niger; [2]) was 0, the “Microorganism population, Before” value (A. niger; before heat treatment) was 260 and the “Microorganism population, After” value (B. subtilis ATCC 6633; B. subtilis ATCC 6633, high inoculum, singular bacillus species in 10^0 dilution plate) was 1^1. For the same molecule, the “Microorganism population, Before” value (B. subtilis ATCC 6633; B. subtilis ATCC 6633, high inoculum) was 1.2 × 10^5, the “Microorganism population, After” value (B. subtilis ATCC 6633; [3]) was 0 and the “Microorganism population, Before” value (B. subtilis ATCC 6633; [3]) was 300. For the same molecule, the “Microorganism population, After” value (C. albicans; [2]) was 0, the “Microorganism population, Before” value (C. albicans; before heat treatment) was 780 and the “Microorganism population, After” value (C. sporegenes; [2]) was 0. For the same molecule, the “Microorganism population, Before” value (C. sporegenes; before heat treatment) was 160, the “Microorganism population, After” value (E. coli; [2]) was 0 and the “Microorganism population, Before” value (E. coli; before heat treatment) was 450. The “Microorganism population, After” value (M. luteus; [2]) was 0, the “Microorganism population, Before” value (M. luteus; before heat treatment) was 300 and the “Microorganism population, After” value (Ps. Aeruginosa; [2]) was 0. For the same molecule, the “Microorganism population, Before” value (Ps. Aeruginosa; before heat treatment) was 350, the “Microorganism population, After” value (S. epidermidis; [2]) was 0 and the “Microorganism population, Before” value (S. epidermidis; before heat treatment) was 240. The “Microorganism population, After” value (Salmonella typhi; [2]) was 0, the “Microorganism population, Before” value (Salmonella typhi; before heat treatment) was 270 and the “D100 (time for log 1 reduction in number of spores)” value (Bacillus subtilis spores; 100° C.) was “D100 = 41.5 min; correlation coefficient = −0.0996 This means that it takes 6 × 41.5 minutes to obtain a log 6 reduction in the number of spores at a temperature of 100 °C”. The log spores/g (Bacillus subtilis spores; [4]) was 6.81, the spores/g (Bacillus subtilis spores; [4]) was 6.5 × 10^6 spores/g and the log spores/g (Bacillus subtilis spores; 100° C., 15 min) was 3.68. The spores/g (Bacillus subtilis spores; 100° C., 15 min) was 4.8 × 10^3 spores/g, the log spores/g (Bacillus subtilis spores; 100° C., 45 min) was 2.85 and the spores/g (Bacillus subtilis spores; 100° C., 45 min) was 7.1 × 10^2 spores/g. The log spores/g (Bacillus subtilis spores; 100° C., 75 min) was 2.23, the spores/g (Bacillus subtilis spores; 100° C., 75 min) was 1.7 × 10^2 spores/g and the “D110 (time for log 1 reduction in number of spores)” value (Bacillus subtilis spores; 110° C.) was “D110 = 8.3 min; correlation coefficient = −0.995 This means that it takes 6 × 8.3 minutes to obtain a log 6 reduction in the number of spores at a temperature of 110 °C”. For the same molecule, the log spores/g (Bacillus subtilis spores; [5]) was 6.20, the spores/g (Bacillus subtilis spores; [5]) was 2 × 10^6 spores/g and the log spores/g (Bacillus subtilis spores; 110° C., 5 min) was 4.32. The spores/g (Bacillus subtilis spores; 110° C., 5 min) was 2.08 × 10^4 spores/g, the log spores/g (Bacillus subtilis spores; 110° C., 15 min) was 2.97 and the spores/g (Bacillus subtilis spores; 110° C., 15 min) was 9.25 × 10^2 spores/g. For the same molecule, the log spores/g (Bacillus subtilis spores; 110° C., 20 min) was 2.55, the spores/g (Bacillus subtilis spores; 110° C., 20 min) was 3.55 × 10^2 spores/g and the “D120 (time for log 1 reduction in number of spores)” value (Bacillus subtilis spores; 120° C.) was “D120 = 4.1 min; correlation coefficient = −0.998 This means that it takes 6 × 4.1 minutes to obtain a log reduction in the number of spores at a temperature of 120 °C”. The log spores/g (Bacillus subtilis spores; [6]) was 6.19, the spores/g (Bacillus subtilis spores; [6]) was 1.5 × 10^6 spores/g and the log spores/g (Bacillus subtilis spores; 120° C., 4 min) was 2.28. For the same molecule, the spores/g (Bacillus subtilis spores; 120° C., 4 min) was 1.9 × 10^2 spores/g, the log spores/g (Bacillus subtilis spores; 120° C., 6 min) was 1.74 and the spores/g (Bacillus subtilis spores; 120° C., 6 min) was 5.5 × 10^1 spores/g. The log spores/g (Bacillus subtilis spores; 120° C., 8 min) was 1.30, the spores/g (Bacillus subtilis spores; 120° C., 8 min) was 2 × 10^1 spores/g and the “D110 value” (spore suspension) was 41 min.

For C[C@]12C=CC(=O)C=C1CC[C@@H]1[C@@H]2[C@@H](O)C[C@@]2(C)[C@H]1CC[C@]2(O)C(=O)CO [Prednisolone, prednisolone], the “D110 value” (spore suspension) was 73.8 min.

For CCC[C@@H]1O[C@@H]2C[C@H]3[C@@H]4C[C@H](F)C5=CC(=O)CC[C@]5(C)[C@@]4(F)[C@@H](O)C[C@]3(C)[C@]2(C(=O)CO)O1 [Rofleponide, rofleponide], the “D110 value” (spore suspension) was 9.8 min and the Spore kill (spore suspension; full 1.0 g sample, cycle times ≧5 minutes at 110° C., D110 could not be calculated) was “total kill”.

calcium stearate was tested, and the “Spore population, After” value [1] was 3.3 × 10^6 spores, the “Spore population, Before” value [1] was 1.5 × 10^7 spores and the Spore log reduction [1] was “less than 0.7”.
